# From ChEMBL document CHEMBL1201862, “PubChem BioAssay data set” (2004)
# Calls of active or inactive are those of the source.
# Key:
# [1] = HEK-293T viability loss after treatment – luminescence, T-cell screen hits, cytotoxicity control for TCR NF-kB inhibitor project, dose response (AID 489026); format: functional, cell-based;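 note: cells exposed to compound about 14 hours before the viability readout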
# INS1 = assay: INS-1E survival protection against cytokine death – cell-based, luminescence, retest, dose response (AID 449756); format: functional; settings: Rattus norvegicus;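 note: cell death triggered by IL-1 beta plus TNF-alpha plus IFN-gamma mixture; protective hits raise ATP signal compared with cytokine alone wells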
# Galanin receptor type 3 = target: T1, Galanin receptor type 3 (Homo sapiens, UniProt O60755); assay: Fluorescence-based cell-based primary high throughput dose response assay to identify antagonists of the Galanin Receptor 3 (GalR3).; format: functional
# T1 sequence (O60755 whole entry): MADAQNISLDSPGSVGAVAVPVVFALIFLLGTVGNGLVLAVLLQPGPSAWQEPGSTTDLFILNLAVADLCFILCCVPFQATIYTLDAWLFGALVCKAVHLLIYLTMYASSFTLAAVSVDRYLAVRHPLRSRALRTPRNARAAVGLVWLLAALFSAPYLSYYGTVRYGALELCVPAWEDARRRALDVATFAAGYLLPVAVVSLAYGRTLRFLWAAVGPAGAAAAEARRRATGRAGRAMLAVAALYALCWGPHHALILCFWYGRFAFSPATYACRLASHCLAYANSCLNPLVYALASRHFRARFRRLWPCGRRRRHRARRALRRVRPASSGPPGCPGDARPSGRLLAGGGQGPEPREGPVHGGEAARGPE
# cells = format: functional, cell-based; settings: HEK-CNG
# [2] = target: T2, COUP transcription factor 2 (Homo sapiens, UniProt P24468); assay: Luminescence-based cell-based high throughput dose response assay to identify inhibitors of COUP-TFII (NR2F2).; format: functional;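 note: HEK293 cells transiently cotransfected with COUP-TFII expression vector and reporter; luciferase reporter luminescence driven by COUP-TFII from the pX2-168 reporter plasmid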
# T2 sequence (P24468 whole entry): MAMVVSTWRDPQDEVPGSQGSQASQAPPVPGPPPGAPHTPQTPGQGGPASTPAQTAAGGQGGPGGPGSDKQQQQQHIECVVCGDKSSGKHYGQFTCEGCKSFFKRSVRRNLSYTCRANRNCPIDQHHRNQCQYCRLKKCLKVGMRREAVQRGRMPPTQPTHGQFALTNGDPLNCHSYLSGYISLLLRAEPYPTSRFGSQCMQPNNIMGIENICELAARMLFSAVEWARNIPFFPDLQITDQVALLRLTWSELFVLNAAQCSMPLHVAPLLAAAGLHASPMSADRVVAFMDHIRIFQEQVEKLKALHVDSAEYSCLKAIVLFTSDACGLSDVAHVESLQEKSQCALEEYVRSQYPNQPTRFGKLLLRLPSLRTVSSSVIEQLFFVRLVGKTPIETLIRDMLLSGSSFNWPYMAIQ
# Paired box protein Pax-8 = Paired box protein Pax-8 (Homo sapiens, UniProt Q06710); assay: PAX8 transcriptional activity inhibition in RMG-I – RMG-I cells, luciferase, cherry-pick, dose response (AID 687027); format: functional, cell-based;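 note: luciferase reporter driven by Pax8 target thyroperoxidase promoter measured by SteadyGlo luminescence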
# [3] = OVCAR8 cell viability loss – plate reader, dry powder samples, PAX8 project, dose response (AID 743197); format: functional, cell-based; settings: OVCAR-8
# [4] = P. falciparum Dd2 growth inhibitors, dose response, SYBR Green, cherry-picked samples (AID 1159567); format: functional, cell-based
# [5] = T. cruzi growth inhibition in host cells, dose response, cell-based, plate reader, dry powder, set 2 (AID 652275); format: functional
# [6] = viability loss in HEK293 kidney cells – cell-based, cherry-picks, set 5, cytotoxicity control, dose response (AID 1053117); format: functional
# [7] = growth inhibition of yeast DHODH-expressing 3D7 parasites – SYBR Green, dry powder samples, dose response (AID 1159570); format: functional, cell-based;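 note: parasite growth measured after 72 hours of compound exposure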
# [8] = toxicity to human HepG2 hepatoma cells – cell-based, plate reader, dry powder samples, cytotoxicity control, dose response (AID 1159569); format: functional;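 note: inhibitor potency with signal falling toward the positive control level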
# [9] = Dd2 malaria parasite growth inhibition potency – SYBR Green, dry powder samples, dose response (AID 1159566); format: functional, cell-based;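 note: potency for growth inhibition with lower SYBR green DNA signal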
# [10] = growth inhibition of PfATP4-mutant resistant parasites – NITD609-resistant line, SYBR Green, dry powder, dose response (AID 1159571); format: functional, cell-based;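 note: parasites synchronized at ring stage by sorbitol before testing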
# [11] = toxicity to human hepatoma HepG2 cells – cell-based, cherry-picked samples, cytotoxicity control, dose response (AID 1159577); format: functional
# 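Throughout, for EC50: target is galanin receptor GalR3 read with a cAMP biosensor in HEK293 cells.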
# Chain of Paired box protein Pax-8 (Q06710 whole entry): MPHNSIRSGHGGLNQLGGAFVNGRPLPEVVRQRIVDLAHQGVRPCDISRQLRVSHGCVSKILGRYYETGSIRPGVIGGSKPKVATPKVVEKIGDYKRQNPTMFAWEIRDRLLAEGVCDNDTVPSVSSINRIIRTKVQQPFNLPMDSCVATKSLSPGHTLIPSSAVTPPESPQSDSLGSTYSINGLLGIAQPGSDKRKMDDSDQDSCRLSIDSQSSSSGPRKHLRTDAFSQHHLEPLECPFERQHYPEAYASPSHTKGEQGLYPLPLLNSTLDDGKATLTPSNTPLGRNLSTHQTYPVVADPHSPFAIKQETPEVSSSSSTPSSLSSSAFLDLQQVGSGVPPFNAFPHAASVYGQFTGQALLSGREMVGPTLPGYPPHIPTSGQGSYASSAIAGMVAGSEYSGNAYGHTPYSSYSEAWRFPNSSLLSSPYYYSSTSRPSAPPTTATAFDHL
smiles,measurement,setting,value
Cc1cc(C)c(CN2CCN(C(=O)Cn3cnc4c(OCc5ccccc5)ncnc43)CC2)c(C)c1,IC50,[1],> 80 µM (inactive)
same,AC50,INS1,3.51 µM (active)
same,IC50,Galanin receptor type 3,2.86 µM (active)
same,EC50,cells,> 29.9 µM (inactive)
same,IC50,[2],5.99 µM (active)
C[C@H]1CN([C@@H](C)CO)C(=O)c2c(c3ccccc3n2C)-c2ccccc2CO[C@@H]1CN(C)S(=O)(=O)c1cccc(F)c1,AC50,Paired box protein Pax-8,11.6 µM (active)
same,AC50,[3],37.3 µM (active)
same,AC50,[4],4.88 µM (active)
COc1cccc(-c2ccc([C@H]3[C@H](CO)N4CCCCN(C(=O)Cc5ccncc5)C[C@@H]34)cc2)c1,AC50,[5],2.13 µM (active)
CC(C)(O)C#Cc1cccc(-c2nc(C(=O)NCc3ccc4c(c3)OCO4)cc3c2[C@H](CCO)N([S+]([O-])C(C)(C)C)C3)c1 (stereo partly drawn),AC50,[5],2.44 µM (active)
C[C@H](CO)N1C[C@H](C)[C@@H](CN(C)C(=O)c2cccc(F)c2)Oc2ncc(-c3ccccc3)cc2C1=O,AC50,[6],> 52 µM (inactive)
CC(C)N1C[C@H](C)[C@@H](CN(C)Cc2ccc(Oc3ccccc3)cc2)Oc2c(cccc2-c2nn[nH]n2)C1=O,AC50,[5],7.34 µM (active)
CCC(=O)N1CC2(CCN(C(=O)Nc3ccccc3F)CC2)c2c([nH]c3cc(OC)ccc23)[C@H]1CO,AC50,[7],1.2 µM (active)
same,AC50,[8],50.4 µM (active)
same,AC50,[4],1.24 µM (active)
same,AC50,[9],1.1 µM (active)
same,AC50,[10],934 nM (active)
C[C@H]1CN([C@@H](C)CO)C(=O)c2cc(C#CCc3ccccc3)cnc2O[C@@H]1CN(C)CC1CCCC1,AC50,[4],4.29 µM (active)
same,AC50,[11],11.2 µM (active)
COc1ccccc1C#Cc1ccc([C@H]2[C@@H](C#N)N(C(=O)C3CCCC3)[C@@H]2CO)cc1,AC50,[4],5.1 µM (active)
same,AC50,[11],> 39 µM (inactive)
CCC(=O)N1[C@H](CO)[C@H](c2ccc(C3=CCCC3)cc2)[C@H]1CNCC1CCCC1,AC50,[4],3.77 µM (active)
same,AC50,[11],> 39 µM (inactive)
COc1ccc(NC(=O)Nc2cccc3c2O[C@H](CN(C)C(=O)Nc2cccc4ccccc24)[C@H](C)CN([C@@H](C)CO)C3=O)cc1,AC50,[7],1.64 µM (active)
same,AC50,[8],> 100 µM (inactive)
same,AC50,[4],2.54 µM (active)
same,AC50,[9],0.547 µM (active)
same,AC50,[10],971 nM (active)
